Common to all, as to assay: biochemical
Holding throughout (design): Eurofins recombinant human kinase profiling, remaining kinase activity as % of control, 10 uM ATP
What all share (settings): ATP 10 uM; read-out: %Ctrl@10 μM

One assay concerns the target T1, B-Raf(h) (Homo sapiens, UniProt P15056).
T1 construct: gene BRAF
A digest of the protocol: (§1)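 Activity measured in a commercial panel of 401 recombinant human protein kinases run as a kinase profiling service.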

The next assay concerns the target BTK(R28H)(h) (Homo sapiens, UniProt Q06187, R28H). The procedure, abridged: as §1
The next assay deals with CDKL4(h) (Homo sapiens, UniProt Q5MAI5). A digest of the protocol: as §1
The target in a further assay is T2, CK1γ3(h) (Homo sapiens, UniProt Q9Y6M4).
T2 construct: gene CSNK1G3
The procedure, abridged: as §1

Another assay has as its target T3, CK2α1(h) (Homo sapiens, UniProt P68400).
T3 construct: gene CSNK2A1
The procedure, abridged: as §1

The target of the next assay is T4, DCAMKL2(h) (Homo sapiens, UniProt Q8N568).
T4 construct: gene DCLK2
A digest of the protocol:
as §1

The next assay deals with T5, GSK3β(h) (Homo sapiens, UniProt P49841).
T5 construct: gene GSK3B
A digest of the protocol:
as §1

For the next assay, the target named is HIPK3(h) (Homo sapiens, UniProt Q9H422). A digest of the protocol:
as §1

The next assay concerns the target T6, HRI(h) (Homo sapiens, UniProt Q9BQI3).
T6 construct: gene EIF2AK1
The procedure, abridged: as §1

The next assay addresses T7, IGF-1R(h), activated (Homo sapiens, UniProt P08069).
T7 construct: gene IGF1R
A digest of the protocol:
as §1

Another assay deals with T8, IRR(h) (Homo sapiens, UniProt P14616).
T8 construct: gene INSRR
The procedure, abridged: as §1

Another assay has as its target JAK1(h) (Homo sapiens, UniProt P23458). The procedure, abridged: as §1
Another assay has as its target JAK3(h) (Homo sapiens, UniProt P52333). The procedure, abridged: as §1
For a further assay, the target named is LRRK2(h) (Homo sapiens, UniProt Q5S007). A digest of the protocol: as §1
The target in a further assay is Lyn(h) (Homo sapiens, UniProt P07948). A digest of the protocol:
as §1

In a further assay the target is MYLK2(h) (Homo sapiens, UniProt Q9H1R3). A digest of the protocol:
as §1

The target of another assay is T9, PKCγ(h) (Homo sapiens, UniProt P05129).
T9 construct: gene PRKCG
The procedure, abridged:
as §1

A further assay deals with T10, PKD3(h) (Homo sapiens, UniProt O94806).
T10 construct: gene PRKD3
A digest of the protocol:
as §1

Another assay concerns the target PRKG2(h) (Homo sapiens, UniProt Q13237). The procedure, abridged:
as §1

Another assay has as its target T11, PTK5(h) (Homo sapiens, UniProt P42685).
T11 construct: gene FRK
A digest of the protocol: as §1

The target in another assay is T12, ROCK-II(h) (Homo sapiens, UniProt O75116).
T12 construct: gene ROCK2
The procedure, abridged:
as §1

In a further assay the target is T13, SGK(h) (Homo sapiens, UniProt O00141).
T13 construct: gene SGK1
The procedure, abridged:
as §1

Another assay addresses TLK1(h) (Homo sapiens, UniProt Q9UKI8). The procedure, abridged:
as §1

T13 sequence (O00141 whole entry): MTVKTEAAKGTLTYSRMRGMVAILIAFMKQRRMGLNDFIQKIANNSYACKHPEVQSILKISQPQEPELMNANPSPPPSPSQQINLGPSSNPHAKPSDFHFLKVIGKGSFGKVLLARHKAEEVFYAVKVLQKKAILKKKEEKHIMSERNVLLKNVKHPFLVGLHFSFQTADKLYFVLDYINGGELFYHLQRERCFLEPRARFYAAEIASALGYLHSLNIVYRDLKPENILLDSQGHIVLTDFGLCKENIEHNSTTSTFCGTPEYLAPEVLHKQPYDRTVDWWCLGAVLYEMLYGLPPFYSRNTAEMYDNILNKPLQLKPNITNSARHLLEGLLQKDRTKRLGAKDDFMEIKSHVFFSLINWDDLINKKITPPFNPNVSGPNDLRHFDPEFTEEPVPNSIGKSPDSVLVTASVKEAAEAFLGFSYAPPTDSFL
T11 sequence (P42685 whole entry): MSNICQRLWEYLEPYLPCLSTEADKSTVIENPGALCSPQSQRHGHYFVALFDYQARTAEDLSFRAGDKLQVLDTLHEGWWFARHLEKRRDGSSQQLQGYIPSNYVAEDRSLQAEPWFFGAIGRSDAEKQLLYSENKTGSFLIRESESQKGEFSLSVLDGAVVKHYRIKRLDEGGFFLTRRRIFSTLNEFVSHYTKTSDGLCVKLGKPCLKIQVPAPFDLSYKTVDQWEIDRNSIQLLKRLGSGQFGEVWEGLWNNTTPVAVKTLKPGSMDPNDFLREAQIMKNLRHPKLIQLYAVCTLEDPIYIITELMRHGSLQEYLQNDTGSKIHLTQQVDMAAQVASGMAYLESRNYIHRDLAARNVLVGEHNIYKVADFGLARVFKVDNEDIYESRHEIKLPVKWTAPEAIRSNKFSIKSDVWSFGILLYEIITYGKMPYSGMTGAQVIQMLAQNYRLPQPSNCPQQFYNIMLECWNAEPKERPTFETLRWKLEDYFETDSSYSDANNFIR
T4 sequence (Q8N568 whole entry): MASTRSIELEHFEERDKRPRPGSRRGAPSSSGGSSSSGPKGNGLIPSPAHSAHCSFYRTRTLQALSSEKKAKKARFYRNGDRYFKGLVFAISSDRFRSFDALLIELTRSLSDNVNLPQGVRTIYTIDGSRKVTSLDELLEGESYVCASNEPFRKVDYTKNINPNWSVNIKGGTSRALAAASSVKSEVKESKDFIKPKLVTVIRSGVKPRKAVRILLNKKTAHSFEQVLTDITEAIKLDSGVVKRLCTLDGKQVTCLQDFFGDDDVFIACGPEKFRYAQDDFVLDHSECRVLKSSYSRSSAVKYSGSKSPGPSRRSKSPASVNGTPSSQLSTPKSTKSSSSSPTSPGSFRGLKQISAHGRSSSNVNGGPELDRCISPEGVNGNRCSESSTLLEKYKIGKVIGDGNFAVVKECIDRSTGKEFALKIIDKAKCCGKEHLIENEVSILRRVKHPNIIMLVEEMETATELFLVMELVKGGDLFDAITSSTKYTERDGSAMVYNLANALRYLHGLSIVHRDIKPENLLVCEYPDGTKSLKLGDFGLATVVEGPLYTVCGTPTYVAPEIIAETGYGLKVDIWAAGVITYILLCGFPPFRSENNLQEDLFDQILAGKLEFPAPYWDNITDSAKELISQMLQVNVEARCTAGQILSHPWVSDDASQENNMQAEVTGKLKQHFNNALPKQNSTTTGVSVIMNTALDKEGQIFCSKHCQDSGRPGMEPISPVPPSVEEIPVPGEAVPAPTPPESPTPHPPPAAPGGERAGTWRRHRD
Chain of PRKG2(h) (Q13237 whole entry): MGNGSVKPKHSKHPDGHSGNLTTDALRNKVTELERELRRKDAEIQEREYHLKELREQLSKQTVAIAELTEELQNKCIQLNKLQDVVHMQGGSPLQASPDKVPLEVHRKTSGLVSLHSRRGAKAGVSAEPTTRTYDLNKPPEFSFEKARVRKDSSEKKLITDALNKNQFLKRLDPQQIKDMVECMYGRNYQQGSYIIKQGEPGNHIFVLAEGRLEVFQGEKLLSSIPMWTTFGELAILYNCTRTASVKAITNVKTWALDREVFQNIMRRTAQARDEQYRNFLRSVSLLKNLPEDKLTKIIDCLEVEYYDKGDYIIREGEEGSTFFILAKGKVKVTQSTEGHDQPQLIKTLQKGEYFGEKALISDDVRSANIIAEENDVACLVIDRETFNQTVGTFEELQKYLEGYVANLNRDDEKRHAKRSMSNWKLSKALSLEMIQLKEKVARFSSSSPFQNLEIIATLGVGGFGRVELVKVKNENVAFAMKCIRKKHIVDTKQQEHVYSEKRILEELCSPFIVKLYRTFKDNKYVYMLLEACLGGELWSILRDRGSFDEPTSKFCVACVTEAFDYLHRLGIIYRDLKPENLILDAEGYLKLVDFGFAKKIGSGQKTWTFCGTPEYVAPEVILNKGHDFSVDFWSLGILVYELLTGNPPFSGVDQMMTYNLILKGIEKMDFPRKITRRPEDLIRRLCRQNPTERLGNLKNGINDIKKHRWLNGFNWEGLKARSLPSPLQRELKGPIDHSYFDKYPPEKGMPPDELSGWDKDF
Chain of HIPK3(h) (Q9H422 whole entry): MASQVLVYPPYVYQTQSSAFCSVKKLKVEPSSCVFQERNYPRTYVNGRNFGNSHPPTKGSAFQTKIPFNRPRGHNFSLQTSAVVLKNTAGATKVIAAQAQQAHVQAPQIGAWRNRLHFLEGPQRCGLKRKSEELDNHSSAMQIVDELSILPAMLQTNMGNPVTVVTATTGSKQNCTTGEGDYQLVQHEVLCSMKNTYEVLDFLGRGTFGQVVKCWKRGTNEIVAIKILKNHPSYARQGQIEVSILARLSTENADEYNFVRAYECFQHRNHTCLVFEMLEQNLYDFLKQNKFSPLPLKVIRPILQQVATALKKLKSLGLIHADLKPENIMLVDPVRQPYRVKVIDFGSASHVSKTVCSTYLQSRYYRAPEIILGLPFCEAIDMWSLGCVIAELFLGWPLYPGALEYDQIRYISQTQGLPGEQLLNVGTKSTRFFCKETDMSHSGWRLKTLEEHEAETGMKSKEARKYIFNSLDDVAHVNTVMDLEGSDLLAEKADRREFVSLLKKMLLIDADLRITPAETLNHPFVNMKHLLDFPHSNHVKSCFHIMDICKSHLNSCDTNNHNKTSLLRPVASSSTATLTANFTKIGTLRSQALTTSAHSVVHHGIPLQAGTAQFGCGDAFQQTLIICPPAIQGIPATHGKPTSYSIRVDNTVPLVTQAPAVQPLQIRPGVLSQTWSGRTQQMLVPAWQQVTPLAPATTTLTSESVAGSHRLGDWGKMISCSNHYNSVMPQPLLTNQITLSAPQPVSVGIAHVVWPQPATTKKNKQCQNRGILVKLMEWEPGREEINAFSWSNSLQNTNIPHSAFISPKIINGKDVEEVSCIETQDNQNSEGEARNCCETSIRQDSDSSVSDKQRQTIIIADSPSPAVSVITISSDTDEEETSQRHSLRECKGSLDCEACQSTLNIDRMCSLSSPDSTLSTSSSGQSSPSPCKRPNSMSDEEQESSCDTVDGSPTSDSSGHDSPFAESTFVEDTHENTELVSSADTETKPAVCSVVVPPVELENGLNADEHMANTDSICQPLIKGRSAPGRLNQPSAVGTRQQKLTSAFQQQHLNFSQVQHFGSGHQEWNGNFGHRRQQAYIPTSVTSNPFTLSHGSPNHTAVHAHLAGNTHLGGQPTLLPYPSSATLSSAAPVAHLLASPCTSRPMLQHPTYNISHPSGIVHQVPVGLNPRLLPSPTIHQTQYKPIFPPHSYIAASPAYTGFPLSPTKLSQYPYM
T1 sequence (P15056 whole entry): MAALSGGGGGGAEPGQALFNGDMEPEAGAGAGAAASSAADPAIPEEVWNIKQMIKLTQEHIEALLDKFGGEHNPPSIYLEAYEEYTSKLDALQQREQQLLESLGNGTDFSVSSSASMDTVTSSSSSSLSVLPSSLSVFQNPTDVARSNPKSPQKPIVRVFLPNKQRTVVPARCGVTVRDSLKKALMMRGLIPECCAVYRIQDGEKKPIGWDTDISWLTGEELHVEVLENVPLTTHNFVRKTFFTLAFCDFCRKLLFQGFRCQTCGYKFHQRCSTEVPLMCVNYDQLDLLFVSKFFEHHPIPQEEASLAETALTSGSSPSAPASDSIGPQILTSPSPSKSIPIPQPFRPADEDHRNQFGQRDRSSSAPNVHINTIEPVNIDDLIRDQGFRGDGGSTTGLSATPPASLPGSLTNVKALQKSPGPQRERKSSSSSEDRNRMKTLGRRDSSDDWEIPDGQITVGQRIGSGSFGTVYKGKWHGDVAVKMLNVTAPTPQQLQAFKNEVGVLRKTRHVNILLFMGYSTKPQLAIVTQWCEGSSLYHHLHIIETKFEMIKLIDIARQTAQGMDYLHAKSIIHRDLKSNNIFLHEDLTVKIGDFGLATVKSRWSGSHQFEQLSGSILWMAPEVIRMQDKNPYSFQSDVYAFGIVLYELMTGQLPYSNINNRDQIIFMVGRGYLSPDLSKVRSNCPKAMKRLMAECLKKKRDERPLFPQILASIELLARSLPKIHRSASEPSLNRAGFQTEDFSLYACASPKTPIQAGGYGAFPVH
T6 sequence (Q9BQI3 whole entry): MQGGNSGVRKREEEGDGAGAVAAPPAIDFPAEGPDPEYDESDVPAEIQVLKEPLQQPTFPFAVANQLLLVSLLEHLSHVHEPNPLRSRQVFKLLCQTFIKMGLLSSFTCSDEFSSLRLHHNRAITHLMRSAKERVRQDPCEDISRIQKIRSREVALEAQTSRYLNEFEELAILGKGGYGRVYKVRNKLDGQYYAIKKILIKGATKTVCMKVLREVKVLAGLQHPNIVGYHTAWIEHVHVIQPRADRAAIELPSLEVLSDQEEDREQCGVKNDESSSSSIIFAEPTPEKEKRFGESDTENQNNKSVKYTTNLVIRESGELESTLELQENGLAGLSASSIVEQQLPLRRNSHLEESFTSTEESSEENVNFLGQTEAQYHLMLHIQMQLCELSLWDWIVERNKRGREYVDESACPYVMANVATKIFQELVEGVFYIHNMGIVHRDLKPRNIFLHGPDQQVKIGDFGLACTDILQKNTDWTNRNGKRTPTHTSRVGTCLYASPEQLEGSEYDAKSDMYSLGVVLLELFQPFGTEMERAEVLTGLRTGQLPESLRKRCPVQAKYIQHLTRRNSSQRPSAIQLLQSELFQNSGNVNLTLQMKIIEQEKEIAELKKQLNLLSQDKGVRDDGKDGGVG

As to `C1=C(c2nc(-c3cnn(C4CCNCC4)c3)cn3cc(-c4ccccc4)nc23)CCOC1` [YL-939], the remaining activity at 10 µM came to 84% on B-Raf(h); 107% on BTK(R28H)(h); 76% at CDKL4(h); 102% at CK1γ3(h); 103% at CK2α1(h); 79% on DCAMKL2(h). Besides, the remaining activity at 10 µM is 96% on GSK3β(h); 86% on HIPK3(h); 111% on HRI(h); 95% at IGF-1R(h), activated; 74% at IRR(h); 66% on JAK1(h). Also, the remaining activity at 10 µM at JAK3(h) is 91%; on LRRK2(h) it was 103%; on Lyn(h), 95%; on MYLK2(h), 52%; at PKCγ(h), 96%; at PKD3(h), 87%. The remaining activity at 10 µM at PRKG2(h) was determined as 97%; on PTK5(h), 75%; at ROCK-II(h), 89%; at SGK(h), 72%; at TLK1(h), 71%.

These data come from paper PMC9719519, “Non-classical ferroptosis inhibition by a small molecule targeting PHB2” (Nature Communications, 2022).
